Laboratory results published in patent US11813249B2, “Combination therapy for treatment of restenosis” (Mercator MedSystems, Inc., priority 2017, dated 2023).
Entries after “also recorded” stand apart in the source; their conditions may differ.

Key:
in vivo = test: in vivo
Source text: Overview: The purpose of this study was to evaluate the safety and pharmokinetic profile of Torisel® and dexamethasone when delivered in an exaggerated dose to peripheral vasculature in a porcine model of balloon overstretch artery stenosis.
Methods: Four juvenile porcine subjects were used on this study to assess tissue safety and pharmacokinetic profile. The animals received femoral artery injury induced via oversizing a balloon (˜20-30% overstretch). Three animals received subsequent treatment with the Bullfrog® catheter of Torisel® (2 mg/mL) with dexamethasone (6 mg/mL) and contrast medium (20%) into the adventitia and perivascular tissue around the peripheral arteries. The fourth animal received subsequent treatment with the Bullfrog® catheter of saline and contrast medium (20%) into the adventitia and perivascular tissue around the peripheral arteries. Blood samples were taken at baseline, and post-implant 20 minutes, 1 hour, 4 hours, 24 hours, 3 days, 7 days, and just prior to termination for pharmacokinetic assessment. […] The other three animals were survived for 14 days. At day 14, blood was collected, animals were euthanized and a necropsy was performed.

human aortic VSMCs [1] = conditions: 12 hours; for LDH release (necrosis and cytolysis): increasing drug concentrations, with or without 50 nM dexamethasone, FIG. 18A-C; for necrotic cytotoxicity (LDH): single drug or 500 nM TEM or PAC with DEX 10, 50, 500 nM, FIG. 19C
Protocol: At harvest, plates were centrifuged at 800 rpm in a clinical centrifuge, and supernatant was carefully removed and assayed for lysed cells by measuring the LDH released into the culture media by ELISA, according to manufacturer instructions. Absorbance readings were taken using a microtiter plate reader (Tecan). […] Data in FIG. 18A represent the LDH release in the presence of increasing concentrations of sirolimus or sirolimus+50 nM dexamethasone. […] Data represent the average of 9 replicate wells per condition and error bars represent the standard deviation of the 9 replicates.
Treated cells were then incubated for 12 hours. At harvest, plates were centrifuged at 800 rpm in a clinical centrifuge, and supernatant was carefully removed and assayed for LDH by ELISA according to manufacturer instructions. Absorbance readings were taken using a microtiter plate reader (Tecan). Data represent the average absorbance readings. Error bars represent the standard deviation amongst replicates.

human aortic VSMCs [2] = test: Apoptosis by Caspase 3 ELISA in drug-treated VSMCs; conditions: 12 hours; for apoptosis (Caspase 3 activation): increasing drug concentrations, with or without 50 nM dexamethasone, FIG. 17A-C
Protocol: At harvest, cells were gently lysed and a Caspase 3 ELISA was performed (Cell Signaling Technologies, Cat #7190). Absorbance readings were taken using a microtiter plate reader (Tecan). […] Data represent the average of 9 replicate wells per condition and error bars represent the standard deviation of the 9 replicates. Baseline levels of VSMC apoptosis were obtained using vehicle controls and values were set to zero. The percent change in apoptosis in the presence of drug was determined from baseline (FIG. 17A-C).
Cells were then incubated for 12 hours. At harvest, plates were centrifuged at 800 rpm in a clinical centrifuge, and supernatant was carefully removed. Cells were then fixed and permeabilized and assayed for cytoplasmic caspase 3 levels by ELISA, according to manufacturer instructions (Cell Signaling Technologies). Absorbance readings were taken using a microtiter plate reader (Tecan). Data represent the average absorbance readings. Error bars represent the standard deviation amongst replicates.

[3] = system: TNFα production of human aortic VSMCs; test: TNFα ELISA of supernatant of PDGF-stimulated VSMCs; type: cell-based; conditions: for PDGF-induced TNFα levels: 48 h, single drug 0, 10, 50, 500 nM, or 500 nM TEM or PAC with DEX 10, 50, 500 nM, FIG. 19E
Protocol: (§1) Following a 48 hour incubation in the presence of drug and stimulant (PDGF), 50 uL of supernatant from each well was collected and ELISAs were performed to measure TNFα levels. Pro-inflammatory cytokine expression was examined under these conditions by measuring TNFα levels in cell supernatant after 48 h by enzyme-linked immunoassay (ELISA; Peprotech #900-T16, #900-T25).

human aortic VSMCs [4] = test: MTT metabolic activity / proliferation of PDGF-stimulated VSMCs; type: cell-based; conditions: PDGF 10 ng/mL; for inhibitory activity in the MTT assay: Example 11, 1 nM to 100 μM for 12 hours; for inhibition of metabolic activity and proliferation (MTT assay): drug 0, 1, 10, 100, 500 nM, with or without 50 nM dexamethasone, FIGS. 14A-C
Protocol: Drug-specific effects on cellular metabolic activity, pro-inflammatory cytokine production and cytotoxicity were examined. As a cytotoxic control for disruption of metabolic activity, we used actinomycin D (100 ng/mL or […]). As a negative control, vehicle (5% (v/v) sterile DMSO in saline) was used. Following an 8 hour incubation in the presence of drug and stim (PDGF), MTT substrate was added and incubated for an additional 4 hrs prior to measurement. […] Data represent the average absorbance readings.
After 8 h incubation, MTT substrate was added and incubated for an additional 4 hrs prior to measurement (T=12 hours). […] Data represent the average absorbance readings. […] FIG. 19A presents the percent of inhibition that was identified in the presence of single or combination drugs. Low doses of all drugs, administered individually, had minimal inhibitory properties, as compared to high dose of each drug.
(§2) A study was performed to assess the ability of a range of drug or drug combinations to induce cytotoxicity in PDGF-stimulated aortic smooth muscle and endothelial cells in vitro. […] Utilizing protocols for EC and VSMC stimulation mediated by the growth factor, PDGF, cells were incubated in drug at concentration ranges from 0, 1, 10, 100 nM, 1, 10, 100 μM for 12 hours prior to assessment for cellular activation and cytotoxicity. Prior to harvest, BrdU was added to each well for 6 hours for DNA incorporation. […] Data represent the average absorbance readings. […] Cellular activation was monitored by metabolic activity and cellular proliferation. Metabolic activity was measured using the MTT assay to monitor enzyme-dependent metabolite production while proliferation was measured using 5-bromo-2′-deoxyuridine (BrdU) ELISA to monitor DNA synthesis.

[5] = system: IL6 cytokine production of human aortic VSMCs; test: IL6 ELISA of supernatant of PDGF-stimulated VSMCs; type: cell-based; conditions: for PDGF-induced IL6 levels: 48 h, single drug 0, 10, 50, 500 nM, or 500 nM TEM or PAC with DEX 10, 50, 500 nM, FIG. 19D
Protocol: as §1, with “IL6” for “TNFα”

human aortic VSMCs [6] = test: BrdU ELISA proliferation of PDGF-stimulated VSMCs; type: cell-based; conditions: Example 11; 1 nM to 100 μM for 12 hours; PDGF 10 ng/mL; compared to vehicle control and actinomycin D; FIG. 20
Protocol: as §2

[7] = Example 13 porcine study: blood and tissue pharmacokinetics
Protocol: (§3) Methods. Twelve animals were evaluated for tissue safety and pharmacokinetic blood and tissue profiles. The animals received vessel injury induced via oversizing a balloon at ˜20-30% overstretch, then receiving subsequent Bullfrog® catheter delivery of 4 mg/mL Torisel® or saline placebo control into the adventitia and perivascular tissue around the coronary and femoral arteries. Blood samples for pharmacokinetic analysis were taken at 5 minutes, 30 minutes, 1 hour, 24 hours, 72 hours, 7 Days, 28 Days, and termination. Animals were terminated at 90 days. Gross examination of all treated tissues and surrounding structures was performed. […] Histological analysis was performed on all other collected arterial tissues.

[8] = design: species or system swine; conditions: pig, in vivo
Protocol: The study design included a total of eleven (11) animals; 8 of which received angioplasty overstretch followed by single dose of test article in bilateral superficial femoral arteries administered for a total in-life phase of 1 hour (n=2), 3 days (n=2), 7 days (n=2) and 28 days (n=2) and three additional animals that served as control by undergoing angioplasty overstretch followed by infusion of saline and surviving for 3 days (n=1), 7 days (n=1) and 28 days (n=1). A carotid artery access was utilized for all interventional procedures. […] Animals survived to 1 hour (n=2), 3 days (n=2), 7 days (n=2) and 28 days (n=2), for detailed histopathology and safety evaluation. Following survival to the designated endpoint, animals underwent blood collection, then were euthanized and necropsied followed by histological examination.
A prospective study of a single dose (357 μg in 1.5 ml) of adventitially delivered study drug (Torisel®) was conducted. All doses contained 50% contrast medium for distribution tracking. Each pig received bilateral injections in the mid femoral region. 2 pigs each were sacrificed at 1 hour, 3 days, 7 days and 28 days, for a total of 8 pigs. […] 3 pigs were used as control in which treatment sites were subjected to overstretch injury followed by infusion of saline via the Mercator Bullfrog® catheter and sacrificed at 3 days, 7 days or 28 days (1 pig at each time point). […]

external iliac arteries = test: Example 15 WHHL rabbit model of balloon overstretch artery stenosis: histopathology; type: in vivo, Watanabe heritable hyperlipidemic (WHHL) rabbit; conditions: relative to dexamethasone alone or vehicle group
Protocol: Overview. A rabbit study was performed to evaluate the tissue effect of Torisel® (Tem) and dexamethasone (Dex) when delivered as combined or alone to peripheral vasculature in a Watanabe heritable hyperlipidemic (WHHL) rabbit model of balloon overstretch artery stenosis. Each animal was subject to balloon angioplasty and treatment in each of the two (2) external iliac arteries. Four subjects were assigned to each of three groups: Torisel®, dexamethasone, or combination. Three subjects were assigned to each of two groups: control (vehicle delivery) or balloon only. Two New Zealand white rabbits were assigned to treatment with balloon only in one iliac and were naïve to any treatment in the other iliac.
Methods. Twenty animals were evaluated for tissue effect of peri-vascular injection of test and control articles. […] The animals received vessel injury induced via oversizing a balloon (˜20-30% overstretch). Animals were divided into the six groups with varying balloon injury targets and various combinations of test and control articles. The test and control articles were injected into the peri-vascular tissue using the Bullfrog® catheter. Animals were recovered and survived for ˜28 days. At ˜28 days, animals were sacrificed, a gross pathology performed and tissue harvested for histopathology analysis.

[9] = dosage of 4 mg/mL temsirolimus
Protocol: as §3

With C[C@@H]1C[C@H]2[C@@H]3CCC4=CC(=O)C=C[C@]4(C)[C@@]3(F)[C@@H](O)C[C@]2(C)[C@@]1(O)C(=O)CO [dexamethasone] the “dexamethasone levels in plasma at the 24-hour time point and after” value (in vivo; pig, in vivo) was “below LLOQ”, the “tissue levels at 14 days” value (in vivo; pig, in vivo) was “below LLOQ” and the “LDH release (necrosis and cytolysis)” value (human aortic VSMCs [1]) was “suppressed LDH release compared to vehicle”. The “necrotic cytotoxicity (LDH)” value (human aortic VSMCs [1]) was “not observed” and the “apoptosis (Caspase 3 activation)” value (human aortic VSMCs [2]) was “did not induce significant apoptosis”.

With CC(=O)O[C@H]1C(=O)[C@@]2(C)[C@H]([C@H](OC(=O)c3ccccc3)[C@]3(O)C[C@H](OC(=O)[C@H](O)[C@@H](NC(=O)c4ccccc4)c4ccccc4)C(C)=C1C3(C)C)[C@]1(OC(C)=O)CO[C@@H]1C[C@@H]2O [paclitaxel] the “PDGF-induced TNFα levels” value [3] was “dose-dependent upregulation”, the TNFα production ([3]; 48 hour incubation, increasing drug concentrations, with or without 50 nM dexamethasone, FIGS. 15A-C) was “activated pro-inflammatory cytokine expression; also recorded: induced IL6 and TNFα production by SMCs at all doses tested; also recorded: increased steadily” and the “LDH release (necrosis and cytolysis)” value (human aortic VSMCs [1]) was “dose-dependent relationship”. For the same molecule, the “necrotic cytotoxicity (LDH)” value (human aortic VSMCs [1]) was “demonstrated necrotic cytotoxicity”, the “average increase in apoptosis from vehicle baseline” value (human aortic VSMCs [2]; Caspase 3 ELISA, vehicle baseline set to zero) was ≤ 173% and the “apoptosis (Caspase 3 activation)” value (human aortic VSMCs [2]) was “induced in a dose-dependent manner”. The “apoptosis (cytoplasmic caspase 3) compared to vehicle control” value (human aortic VSMCs [2]; single drug or 500 nM TEM or PAC with DEX 10, 50, 500 nM, FIG. 19B) was “promote apoptosis (lack of inhibition)”, the “inhibitory activity in the MTT assay” value (human aortic VSMCs [4]) was “at higher concentrations had inhibitory activity” and the “inhibition of metabolic activity and proliferation (MTT assay)” value (human aortic VSMCs [4]) was “at higher concentrations had inhibitory activity”. For the same molecule, the “PDGF-induced IL6 levels” value [5] was “dose-dependent upregulation”, the IL6 production ([5]; 48 hour incubation, increasing drug concentrations, with or without 50 nM dexamethasone, FIGS. 16A-C) was “induced IL6 and TNFα production by SMCs at all doses tested; also recorded: no significant change in IL6 levels between 50 and 500 nM” and the “inhibition of BrdU incorporation (cellular proliferation)” value (human aortic VSMCs [6]) was “approached the degree of inhibition of actinomycin D”.

With CO[C@H]1C[C@@H]2CC[C@@H](C)[C@@](O)(O2)C(=O)C(=O)N2CCCC[C@H]2C(=O)O[C@H]([C@H](C)C[C@@H]2CC[C@@H](O)[C@H](OC)C2)CC(=O)[C@H](C)/C=C(\C)[C@@H](O)[C@@H](OC)C(=O)[C@H](C)C[C@H](C)/C=C/C=C/C=C/1C [sirolimus] the “relation of observed blood concentrations to dose” value ([7]; 52 mg versus 5.2 mg Torisel) was “proportional to dose”, the “homogenized vascular tissue levels” value ([7]; termination at 90 days) was “all below LLOQ” and the “whole blood levels at 28 days and at termination” value ([7]; termination at 90 days) was “below LLOQ”. The “whole blood levels, time course” value ([7]; up to 52 mg or 5.2 mg Torisel, perivascular, coronary and peripheral arteries) was “peaked at early time points, declined over time to Day 7”.

In the case of CO[C@H]1C[C@@H]2CC[C@@H](C)[C@@](O)(O2)C(=O)C(=O)N2CCCC[C@H]2C(=O)O[C@H]([C@H](C)C[C@@H]2CC[C@@H](OC(=O)C(C)(CO)CO)[C@H](OC)C2)CC(=O)[C@H](C)/C=C(\C)[C@@H](O)[C@@H](OC)C(=O)[C@H](C)C[C@H](C)/C=C/C=C/C=C/1C [temsirolimus], the “relation of observed blood concentrations to dose” value ([7]; pig, in vivo) is reported as “proportional to dose”, the “whole blood levels at 28 days and at termination” value ([7]; pig, in vivo) is reported as “below LLOQ” and the “time post-dosing up to which drug was measured in the local vascular tissue” value [8] is reported as “up to 28 days”. The “temsirolimus levels in the blood, time course” value (in vivo; Torisel 2 mg/mL with dexamethasone 6 mg/mL, perivascular, peripheral arteries) was “peaked at early time points, declined over time to 7 days”, the “temsirolimus levels in the blood at termination” value (in vivo; day 14) was “below the lower limit of quantitation (LLOQ)” and the “level in homogenized vascular tissue at term” value (in vivo; day 14, one value per test animal) was 97.5 ng/g. For the same molecule, the “level in vascular tissue at term, molar equivalent” value (in vivo; day 14, printed as equivalent) was 94.7 nM, the concentration at 14 days (in vivo; pig, in vivo, level in homogenized vascular tissue at term, day 14, one value per test animal) was 50.3 ng/g and the concentration at 14 days (in vivo; pig, in vivo, level in vascular tissue at term, molar equivalent, day 14, printed as equivalent) was 48.8 nM. For the same molecule, the “PDGF-induced TNFα levels” value [3] was “dose-dependent reduction”, the “% HHF-35 positive intimal/medial area (marker of vascular smooth muscle cell viability)” value (external iliac arteries) was “smaller” and the “inhibitory activity in the MTT assay” value (human aortic VSMCs [4]) was “at higher concentrations had inhibitory activity”. The “inhibition of metabolic activity and proliferation (MTT assay)” value (human aortic VSMCs [4]) was “at higher concentrations had inhibitory activity”, the “PDGF-induced IL6 levels” value [5] was “dose-dependent reduction” and the “inhibition of BrdU incorporation (cellular proliferation)” value (human aortic VSMCs [6]) was “approached the degree of inhibition of actinomycin D”. The mineralization in tissues [9] was “not previously seen”.
